Data from the OPERA property sets (Mansouri et al. 2018).

In order of falling logP:
1. Clc1cc(Cl)c(Cl)c(-c2ccc(Cl)c(Cl)c2Cl)c1  7.39
2. CN(C)CCCC(c1ccccc1)c1ccc(C(C)(C)C)cc1 (centres undefined)  5.72
3. CC(=O)C(C#N)=NNc1ccc2c(c1)OC(F)(F)C(F)(F)O2  5.31
4. COP(=O)(Oc1cc(Cl)c(Br)cc1Cl)c1ccccc1 (centres undefined)  4.58
5. COc1ccc(C(c2ccc(OC)cc2)C(Cl)Cl)cc1  4.47
6. COc1ccc(CN(C)N=Nc2ccc(C(=O)O)cc2)cc1  4.43
7. CCCCCc1ccc(O)cc1  4.06
8. CCCNc1c([N+](=O)[O-])cc(C(F)(F)F)cc1[N+](=O)[O-]  3.65
9. Nc1ncc(Cc2cc(Cl)c(Cl)c(Cl)c2)c(N)n1  3.64
10. CCCCCn1nnc2ccccc21  3.22
11. O=[N+]([O-])c1cc2nc(C(F)(F)F)[nH]c2cc1Cl  3.21
12. Nc1ccccc1C(c1ccc(O)cc1)c1ccc(O)cc1  3.16
13. COc1cccc(NS(=O)(=O)C(F)(F)F)c1  3.13
14. CSc1ccccc1/N=N/N(C)C  3.13
15. CNC(=O)ON=Cc1cccc(Oc2ccccc2)c1  3.12
16. O=C1C(O)=C(CC=C(Cl)Cl)C(=O)c2ccccc21  3.1
17. CC12CC3CC(C1)CC(N)(C3)C2  3.01
18. COc1ccc(Cc2cnc(N)nc2N)cc1Nc1ccccc1  2.88
19. O=C1CN=C(c2c(F)cccc2F)c2ccc(Cl)cc2N1  2.88
20. CCSC(=O)Oc1cccc2cccnc12  2.74
21. O=C1CN=C(c2c(F)cccc2F)c2cc(Cl)ccc2N1  2.68
22. CN(C)c1ccc2c(c1)C(c1ccccc1)=NCC(=O)N2C  2.63
23. CC(=O)Oc1cccc(C(F)(F)F)c1  2.63
24. COc1ccccc1C1=NCC(=O)Nc2ccc(Cl)cc21  2.63
25. CCOC(=O)C(=Cc1ccc(C)cc1)C(C)=O  2.63
26. O=C(c1ccncc1)c1ccc(Cl)cc1  2.61
27. CC(C)NNC(=O)C(C)(C)Oc1ccc(Cl)cc1  2.56
28. CSC(C)=NOC(=O)N(C)SN(C)C(=O)c1ccc(C)cc1  2.5
29. COc1ccc(Br)cc1Cc1cnc(N)nc1N  2.44
30. COc1cccc(/C=C/[N+](=O)[O-])c1  2.37
31. O=C1C=CC(=NO)c2ccccc21  2.27
32. O=C(c1ccncc1)c1ccccc1O  2.13
33. Clc1cc(Cl)c(N=C2NCCN2)cc1Cl  2.11
34. CC(C)Nc1ccccc1C(N)=O  2.07
35. O=[N+]([O-])C=Cc1cccc(O)c1  2.07
36. O=NN(CCCl)C(=O)NC1CCSCC1  2.07
37. COc1c(N(C)C)cc(Cc2cnc(N)nc2N)cc1N(C)C  2.05
38. O=NN1CCCCCCCC1  2.04
39. CC1CNC(=Nc2ncc([N+](=O)[O-])s2)N1C (centres undefined)  2.02
40. CN(C)c1ccc(N=C2C=CC(=O)C=C2)cc1  2.02
41. CN(C)CCc1cccs1  1.99
42. Nc1nc(N)nc(-c2cc(Br)ccc2F)n1  1.94
43. Clc1cccc(NC2=NCCN2)c1Cl  1.94
44. Cc1cc(C)cc(NC(=O)N(C)C)c1  1.9
45. C=CCC1(C2=CCCC2)C(=O)NC(=O)N(C)C1=O (centres undefined)  1.89
46. COc1cc(Cc2cnc(N)nc2N)ccc1Cl  1.87
47. CCC1(CC2COc3ccccc3O2)C(=O)NC(=O)NC1=O (centres undefined)  1.85
48. CCCCSC(C)(C)C(N)=O  1.81
49. O=C1CC(C(=O)O)Oc2ccc(Cl)cc21 (centres undefined)  1.77
50. CCCCCCCCCCCC[n+]1ccc(C)c(C)c1.[I-]  1.75
51. C#CC(C=CCl)(CC)OC(N)=O (centres undefined)  1.71
52. COc1cc(C)ccc1N=C1NCCN1  1.64
53. CCC(=O)N(C)SN(C)C(=O)ON=C(C)SC  1.6
54. COc1cc(OC)c(CC(C)N)c(OC)c1 (centres undefined)  1.57
55. COc1cc(-n2nc(C)cc2OC)nc(C)n1  1.54
56. O=C1CN=C(c2ccccc2F)c2cc(Cl)ccc2N1CC(O)CO (centres undefined)  1.51
57. Nc1cnc2ccccc2n1  1.5
58. O=NN1CCCCCCC1  1.48
59. O=C(NCC(O)c1ccc([N+](=O)[O-])cc1)C(F)(F)F (centres undefined)  1.46
60. O=c1[nH]nc(CSc2ccccc2)[nH]1  1.46
61. CSc1nnc(CC(C)C)c(=O)n1N  1.39
62. COc1cc(Cc2cnc(N)nc2N)cc2c1OCO2  1.38
63. COc1ccc(Cc2cnc(N)nc2N)cc1  1.34
64. COC12C(COC(N)=O)C3=C(C(=O)C(C)=C(N)C3=O)N1CC1C2N1C(=O)OCc1ccccc1 (centres undefined)  1.34
65. CCCCCCCCCCCC[n+]1ccccc1C.[I-]  1.32
66. COc1ccccc1NCC#N  1.3
67. COc1cc(S(=O)(=O)CCN2CCOCC2)cc(OC)c1OC  1.29
68. CCOC(=O)c1c(OC)cc(Cc2cnc(N)nc2N)cc1OC  1.25
69. CCCOP(N)(=O)SCCC (centres undefined)  1.23
70. CS(=O)(=O)NN=Cc1ccccc1  1.2
71. Cn1nnc2ccccc21  1.13
72. O=C1CCC(=O)N1c1cccc(Br)c1  1.09
73. CN1C(=O)C(=Cc2ccc([N+](=O)[O-])o2)SC1=S  1.06
74. CSCC1=C(C(=O)O)N2C(=O)C(NC(=O)Cc3cccs3)C2SC1 (centres undefined)  1.01
75. CC1CCCN(N=O)C1 (centres undefined)  0.99
76. COc1cc(-n2[nH]c(C)cc2=O)ncn1  0.99
77. CCOC(=O)c1cnc2cccc(C)n2c1=O  0.96
78. CC(=O)c1ccccc1OC(=O)N(C)C  0.93
79. Fc1cccc(F)c1N=C1NCCN1  0.93
80. Cc1noc(-c2ccccn2)n1  0.89
81. Cc1nc(-c2ccccn2)no1  0.79
82. CCN(CC)/N=N/c1nc[nH]c1C(N)=O  0.78
83. CC1=Nc2cc(C)ccc2S(=O)(=O)N1  0.74
84. CC1=CC(=O)N2C=CCCC2(C)N1 (centres undefined)  0.69
85. CS(=O)(=O)N(c1ccccc1)S(C)(=O)=O  0.62
86. COC12C(COC(N)=O)C3=C(C(=O)C(C)=C(Nc4nccs4)C3=O)N1CC1NC12 (centres undefined)  0.62
87. O=C1CCC(=O)N1c1ccccc1Cl  0.56
88. CCCC(=O)NC(=O)C1CCC1  0.41
89. COc1ccccc1C(=O)N1CCN(C)CC1  0.29
90. OCC1OC(Oc2ccccc2I)C(O)C(O)C1O (centres undefined)  0.27
91. CCOC(=O)c1cnc2ccccn2c1=O  0.25
92. Cc1ccccc1C(=O)NN  0.22
93. NS(=O)(=O)c1cc2c(cc1[N+](=O)[O-])NCNS2(=O)=O  0.2
94. CNC(=O)C(CC(C)C)NC(C)=O (centres undefined)  0.14
95. CCOC(=O)c1ccc(Cl)nn1  0.12
96. CS(=O)(=O)Nc1cccc(NS(C)(=O)=O)c1  0.07
97. COCCN(CCOC)/N=N/c1nc[nH]c1C(N)=O  0.03
98. CNP(=O)(OC)SC (centres undefined)  -0.07
99. O=C(NCCO)c1cccnc1  -0.11
100. NC(=O)N(CCCN(N=O)C(N)=O)N=O  -0.3
101. O=[N+]([O-])c1nccnc1NCC(O)CO (centres undefined)  -0.49
102. CNC(=O)O/N=C/C(C)(C)S(C)(=O)=O  -0.57
103. CC(C)(C)NC(=O)NN  -0.81
104. COc1cc(Cc2cnc(N)nc2N)cc(OC)c1C(N)=O  -0.85
105. Cc1ncc([N+](=O)[O-])n1CCCS(C)(=O)=O  -1
106. CCCCCC[n+]1cc(C)cc(C)c1.[I-]  -1.19
107. OC(C1CO1)C(O)C1CO1 (centres undefined)  -1.29
108. CCCCCC[n+]1ccc(C)c(C)c1.[I-]  -1.51
109. CC(=O)N(CC(O)CO)c1c(I)c(C(=O)NCC(O)CO)c(I)c(C(=O)NCC(O)CO)c1I (centres undefined)  -3.05
